Entries after “also recorded” stand apart in the source; their conditions may differ. Peptide text beside a SMILES is read from it. * marks the point of attachment. Cbz = O=C(OCc1ccccc1)*
Assays:
proteasome = experiment: Proteasome inhibition by MG132 in COS-7 cells, Western blot of ATXN7; assay type: cell-based
Description: (§1) Cell culture, transfections, MG132, INF and cadmium treatments: COS-7 cells were maintained in DMEM (Invitrogen) supplemented with 5% FBS, and penicillin-streptomycin (100 UI/ml; 100 μg/ml). Cell lines were transfected with Lipofectamine-PLUS reagents (Invitrogen) as prescribed. […] Recombinant human Interferon beta (Hu-IFN-b) is obtained from human fibroblast mRNA expressed in E. Coli. Its molecular weight is approximately 20 kDa. Recombinant human Interferon beta was supplied as a solution at 1×10^6 units/ml in PBS (phosphate buffered saline) containing 0.1% BSA (bovine serum albumin) and 10% glycerol. It was purchased from Sigma-Aldrich. Recombinant human Interferon beta (2000 UI/ml) was added to the culture medium after plating and during transfection. Cadmium chloride (Cadmium chloride hemi pentahydrate, Sigma Aldrich) (from 0.25 μM to 2 μM) was added during transfection. For proteasome inhibition, 5 μM MG132 was applied for 12 h, 25 h post-transfection. Cultures of post-mitotic neurons were prepared from the cortex of embryonic day 16 Wistar rats. Cells were extracted from the embryos and cultured with 1 μM MK801. Glial cell proliferation was stopped by adding 1 μM cytosine arabinoside after 3 h. Primary cultures of cortical neurons were transfected 96 h after plating using Lipofectamine 2000 reagent (Invitrogen) according to the manufacturer's instructions.
Western blot and filter retardation assay: Cells were harvested in PBS, pelleted and lysed 30 min on ice in lysis buffer containing 50 mM Tris pH 8.8, 100 mM NaCl, 5 mM MgCl2, 0.5% NP40, 1 mM EDTA and 250 UI/ml benzonase (Merck) supplemented with a cocktail of protease inhibitors (Complete and Pefabloc, Roche). Total extracts were centrifuged at 13000 rpm for 10 min at 4° C. to separate soluble proteins from aggregates and membranes. Supernatants (30 μg protein) were analyzed by Western blot. Pellets were washed with PBS and further incubated 30 min on ice in a pellet buffer containing 20 mM Tris pH 8.0, 15 mM MgCl2 and 250 UI/ml benzonase. Protein concentrations (supernatant and pellet) were determined by Bio-Rad assay. […]

mutant ATXN7 aggregates = experiment: Filter retardation assay of SDS-insoluble material in COS-7 cells; assay type: cell-based; settings: 0.25 to 2 μM cadmium, filter assay on pellet fraction
Description: as §1, with “For proteasome inhibition, 5 μM MG132 was applied for 12 h, 25 h post-transfection. Cultures of post-mitotic neurons were prepared from the cortex of embryonic day 16 Wistar rats. Cells were extracted from the embryos and cultured with 1 μM MK801. Glial cell proliferation was stopped by adding 1 μM cytosine arabinoside after 3 h. Primary cultures of cortical neurons were transfected 96 h after plating using Lipofectamine 2000 reagent (Invitrogen) according to the manufacturer's instructions.” left out
Western blot and filter retardation assay: Cells were harvested in PBS, pelleted and lysed 30 min on ice in lysis buffer containing 50 mM Tris pH 8.8, 100 mM NaCl, 5 mM MgCl2, 0.5% NP40, 1 mM EDTA and 250 UI/ml benzonase (Merck) supplemented with a cocktail of protease inhibitors (Complete and Pefabloc, Roche). […] Supernatants (30 μg protein) were analyzed by Western blot. […] Protein concentrations (supernatant and pellet) were determined by Bio-Rad assay. […]

endogenous PML bodies = experiment: Immunofluorescence of endogenous PML bodies in cadmium-treated cells expressing FL-74Q; assay type: cell-based; settings: 2 μM cadmium
Description: Cell culture, transfections, MG132, INF and cadmium treatments: COS-7 cells were maintained in DMEM (Invitrogen) supplemented with 5% FBS, and penicillin-streptomycin (100 UI/ml; 100 μg/ml). Cell lines were transfected with Lipofectamine-PLUS reagents (Invitrogen) as prescribed. Unless otherwise specified, cells were harvested or analyzed by immunofluorescence 40-45 h post-transfection. β-INF. Recombinant human Interferon beta (Hu-IFN-b) is obtained from human fibroblast mRNA expressed in E. Coli. Its molecular weight is approximately 20 kDa. Recombinant human Interferon beta was supplied as a solution at 1×10^6 units/ml in PBS (phosphate buffered saline) containing 0.1% BSA (bovine serum albumin) and 10% glycerol. It was purchased from Sigma-Aldrich. Recombinant human Interferon beta (2000 UI/ml) was added to the culture medium after plating and during transfection. Cadmium chloride (Cadmium chloride hemi pentahydrate, Sigma Aldrich) (from 0.25 μM to 2 μM) was added during transfection. For proteasome inhibition, 5 μM MG132 was applied for 12 h, 25 h post-transfection. Cultures of post-mitotic neurons were prepared from the cortex of embryonic day 16 Wistar rats. Cells were extracted from the embryos and cultured with 1 μM MK801. Glial cell proliferation was stopped by adding 1 μM cytosine arabinoside after 3 h. […]

SCA7 KI mice [1] = experiment: Life time of SCA7 knock-in mice; assay type: in vivo
Source text: (§2) The inventors use the Spinocerebellar ataxia 7 (SCA7) knock-in mouse model developed in Huda Zhoghbi's lab (Yoo et al, 2003). This mouse model SCAT 266Q/5Q reproduces features of an infantile SCAT disease. The phenotype begins at 5 weeks of age with weight loss and then visual impairment. At about 8 weeks their locomotor functions are affected, and by 13-14 weeks of age the ataxic phenotype is severe with tremor, gait ataxia, muscular mass loss, kyphosis. The mice die between 14 and 19 weeks of age. In this severely affected mice model the inventors undertook to test a treatment with murine beta-IFN (Sigma).
(§3) Protocol: 3 injections (intraperitoneally) per week, each of 10.000 Units murine beta IFN per mouse (from Sigma). Starting at 5 weeks of age, and during 10 weeks or more, until the animals die.

SCA7 KI mice [2] = experiment: Locotronic test in SCA7 knock-in mice; assay type: in vivo; settings: treated KI versus untreated KI
Description: Mice have been subjected to crossing the Locotronic apparatus, each week, 3 sessions with 15 min pause between sessions. FIG. 7A indicates the time in seconds for crossing the Locotronic and FIG. 7B indicates the numbers of errors (front paws, rear paws) made by the mice during the task. A mean value was calculated for the 3 sessions, for each group of animals.
as §2, with “(Sigma). […]” for “(Sigma).”
The Locotronic is designed to evaluated fine motor coordination in mice crossing the apparatus. […] On the side of the apparatus there are infra red sensors which measure errors made with front paws and rear paws (differentially scored). […] All the errors detected by the sensors are saved in a file as well as the time needed for crossing. […]

[3] = test system: wild type mice (C57 black6); experiment: Toxicity of beta-IFN injection protocol in wild type mice; assay type: in vivo; settings: 10.000 Units per mouse, 3 injections per week intraperitoneally, 12 weeks, versus saline
Source text: as §3
The inventors first tested the toxicity of such a treatment, as no publication described a treatment of young animals with IFN. In adult mice affected by multiple sclerosis and receiving injections of beta-IFN, the doses were 10.000 Units per mouse, over 14 weeks. The inventors chose to use the same doses and tested toxicity of the protocol in wild type mice of the same strain (C57 black6) than the KI mice, during 12 weeks. […] The inventors concluded that the dose used was not toxic, and decided to use 10.000 Units, 3 times a week, in the SCAT mouse model.

SCA7 KI mice [4] = experiment: Beam walking test in SCA7 knock-in mice; assay type: in vivo; settings: 10.000 Units i.p. 3 times a week from 5 weeks of age; effect from 12 weeks of age, p inf to 0.005
Description: This test was performed each week, with 3 sessions per animal (maximal time 1 min.). The number of errors made on the wooden beam by each mouse, and the traveled total distance were noted. A mean of the 3 assays was calculated.
as §2
Protocol: 3 injections (intraperitoneally) per week, each of 10.000 Units murine beta IFN per mouse (from Sigma). Starting at 5 weeks of age, and during 10 weeks or more, until the animals die. […]
The mouse is placed at the end of the beam, at segment number 1 and the task is to walk towards the box placed at the other end. […] During the task, the inventors carefully monitored the numbers of errors done with the paws on the beam (front or rear paws). The ratio number of errors/distance traveled (EID) is calculated for each animal.

[5] = 5 μM MG132, COS-7 cells, Western blot

Compound: CC(C)C[C@@H](C=O)NC(=O)[C@H](CC(C)C)NC(=O)[C@H](CC(C)C)NC(=O)OCc1ccccc1 [MG132] (Cbz-Leu-Leu-Leu-aldehyde)
- amount of mutant ATXN7 FL-74Q coexpressed with PML IV (proteasome; [5]): significantly increases; also recorded: increased
- amount of mutant ATXN7 FL-74Q expressed alone (absence of PML IV) (proteasome; [5]): significantly increases; also recorded: increased
- PML-dependent degradation of ATXN7 induced by β-INF (proteasome; MG132 with β-INF treatment, COS-7 cells): inhibited

Compound: O.O.O.O.O.[Cd+2].[Cd+2].[Cl-].[Cl-].[Cl-].[Cl-] [cadmium, Cadmium chloride hemi pentahydrate]
- aggregation of mutant ATXN7 (mutant ATXN7 aggregates): dose-dependent
- endogenous PML bodies (endogenous PML bodies): totally disrupted

Compound: beta-IFN: murine beta-IFN (Sigma) injected intraperitoneally in mice
- mean life time (SCA7 KI mice [1]; 10.000 Units i.p. 3 times a week from 5 weeks of age, untreated SCA7 KI 15.1 weeks): 16.25 weeks
- extension of the life time (SCA7 KI mice [1]; treated versus untreated SCA7 KI mice): 7.5%
- time for crossing the Locotronic (SCA7 KI mice [2]; 10.000 Units i.p. 3 times a week from 5 weeks of age): slower than the beta-interferon treated KI
- number of errors in the Locotronic (SCA7 KI mice [2]; 10.000 Units i.p. 3 times a week, at 14 weeks of age): tendency for the treated KI to make less errors
- adverse effects [3]: did not observe adverse effects
- locomotor coordination (ratio number of errors/traveled distance) (SCA7 KI mice [4]): improves the locomotor coordination
